{"source": "patent US20140005275A1", "about": "“TOPICAL APPLICATION OF 1-HYDROXYL 3,5-BIS(4'HYDROXYL STYRYL)BENZENE” (priority 2012, published 2014)", "key": {"IL-8 cytokine release": {"system": "IL-8 cytokine release", "experiment": "Anti-inflammatory activity: IL-8 cytokine release from epidermal equivalents after solar UV exposure", "format": "cell-based, human", "conditions": "for Change over vehicle alone (Normalized to 100) / % inhibition over UV treatment: IL-8 release; for Change over vehicle alone (Normalized to 100): 2 h before UV 70 kJ/m^2, 24 hours; for % inhibition over UV treatment: UV-exposed epidermal equivalents; for UV-induced inflammation (result in words): summary of Table 2", "description": "The topical anti-inflammatory activities of 1-hydroxyl 3,5-bis(4′hydroxyl styryl)benzene and its piperazine salt were evaluated as follows.\nEpidermal equivalents (EPI 200 HCF), multilayer and differentiated epidermis consisting of normal human epidermal keratinocytes, were purchased from MatTek (Ashland, Mass.). Upon receipt, epidermal equivalents were incubated for 24 hours at 37° C. in maintenance medium without hydrocortisone. Equivalents were topically treated (2 mg/cm^2) with 1-hydroxyl 3,5-bis(4′hydroxyl styryl)benzene thereof in a 70:30 Ethanol-Propylene glycol vehicle two hours before exposure to solar ultraviolet light (1000W-Oriel solar simulator equipped with a 1-mm Schott WG 320 filter; UV dose applied: 70 kJ/m^2 as measured at 360 nm). The equivalents were incubated for 24 hours at 37° C. with maintenance medium then supernatants were analyzed for IL-8 cytokine release using commercially available kits (Millipore Corp., Billerica, Mass.)."}, "Elastin": {"system": "Elastin", "experiment": "Induction of Elastin gene expression in primary human dermal fibroblasts (quantitative PCR)", "format": "cell-based", "conditions": "for Elastin Normalized Fold-change in PCR (Mean): 0.1 ug/mL, 48 hr, normalized to GAPDH, from untreated", "description": "(§1) Primary human dermal fibroblasts (Lifeline Cell Technologies, Frederick, Md.) were grown until confluence in DMEM media (Invitrogen/Life Technologies, Carlsbad, Calif.) with 10% FBS and 1% Penicillin-Streptomycin on 24 well tissue culture plates, followed by treatment with 1-hydroxyl 3,5-bis(4′hydroxyl styryl)benzene (0.1 ug/mL) with and without TNF-a for 48 hr. Post-treatment, cells were lysed using RLT buffer and total RNA was isolated using the RNeasy Mini Kit (Qiagen, Valencia, Calif.). Quantitative PCR was performed using the Gene Amp PCR System 9700 and 7500 Real Time PCR System cycler (Applied Biosystems)/Life Technologies, Carlsbad, Calif.). Elastin (Qiagen) and Collagenlal primers (custom sequence-sense: 5′-TCC-CCA-GCT-GTC-TTA-TGG-CT-3′ and anti-sense: 5′-CAG-GCA-CGG-AAA-TTC-CTC-C-3′) were used. The housekeeping gene GAPDH was used for normalization (custom primer sequence: F 5′-ATC-TCT-GCC-CCC-TCT-GCT-G-3′ and R 5′-ATG-GTT-CAC-ACC-CAT-GAC-GA-3′; Invitrogen/Life Technologies, Carlsbad, Calif.). Fold-changes in PCR (normalized to GAPDH) were calculated from untreated."}, "Collagen1A": {"system": "Collagen1A", "experiment": "Induction of Collagen1A gene expression in primary human dermal fibroblasts (quantitative PCR)", "format": "cell-based", "conditions": "for Collagen1A Normalized Fold-change in PCR (Mean): 0.1 ug/mL, 48 hr, normalized to GAPDH, from untreated", "description": "as §1"}, "MMP-9": {"system": "MMP-9", "experiment": "Inhibition of TNF-α-induced MMP-9 levels in epidermal equivalents", "format": "cell-based, human", "conditions": "for Mean of MMP-9 Release: 2 hours before TNF-α (100 ng/mL), 48 hours", "description": "The ability of 1-hydroxyl 3,5-bis(4′hydroxyl styryl)benzene to inhibit TNF-a induced MMP-9 levels was tested at different concentrations as follows. The formation of TNF-α induced MMP-9 is involved in the undesirable breakdown of extracellular matrix in human skin.\nEpidermal equivalents (EPI 200 HCF) were purchased from MatTek (Ashland, Mass.). Upon receipt, the epidermal equivalents were incubated for 24 hours at 37° C. in maintenance medium without hydrocortisone. The equivalents were topically treated (2 mg/cm^2) with 1-hydroxyl 3,5-bis(4′hydroxyl styryl)benzene extracts in a 70% ethanol/30% propylene glycol vehicle 2 hours before treatment with TNF-α (100 ng/mL). the equivalents were incubated for 48 hours at 37° C. with maintenance medium then supernatants were analyzed for MMP-9 using commercially available kits (R&D Systems, Minneapolis, Minn.)."}, "[1]": {"system": "NF-kB luciferase promoter", "experiment": "NF-κB INHIBITION TEST (NF-kB luciferase reporter, TNFα-stimulated H9c2 cells)", "format": "cell-based, Rat", "conditions": "TNFα 100 ng/ml, versus TNFα + Vehicle (0.1% DMSO)", "description": "NFκB-INHIBITION TESTS were performed on various concentrations of 1-hydroxyl 3,5-bis(4′hydroxyl styryl)benzene and a vehicle control (DMSO). The 1-hydroxyl 3,5-bis(4′hydroxyl styryl)benzene was prepared as described in U.S. Pat. No. 7,745,670. The NF-κB INHIBITION TEST was conducted as follows. Rat cardiac myoblasts H9c2 cells were purchased from ATCC (Manassas, Va.). Cultures were maintained in Dulbecco's modified Eagle's medium (DMEM, Invitrogen Life Technologies, Carlsbad, Calif.) supplemented with 10% fetal bovine serum, 100 units/ml penicillin, and 50 ug/ml streptomycin (Invitrogen life technologies, Carlsbad, Calif.). 1×10^4 cells grown in 96-well plates were transiently transfected with 0.45 ug total DNA per well using Lipofectamine 2000 (Invitrogen life technologies, Carlsbad, Calif.). In all transfections, a construct with the thymidine kinase promoter and the Renilla luciferase reporter gene (pRL-TK, Promega, Madison Wis.) was included as an internal control in addition to the NF-kB luciferase promoter. One day after transfection, cells were treated with the indicated samples (in DMSO as vehicle) at indicated concentrations and stimulated with 100 ng/mL of Tumor Necrosis Factor-α (TNFα, Sigma-Aldrich, St Louis, Mo.) for approximately 24 hours before they were lysed for luciferase assays, using Dual-Luciferase Reporter System from Promega (Madison, Wis.), following manufacturer's protocol. Briefly, the firefly luciferase activity was measured first (representing NF-kB promoter activity), followed by the renilla luciferase (internal control), using luminometer LMAX, from Molecular Devices (Sunnyvale, Calif.). The ratio of these two luciferase activities (RLU) was used to evaluate the activity of each promoter: NF-κB Inhibition=[1−(RLUsample/RLUcontrol)]*100 where RLUsample and RLUcontrol are the normalized luciferase activity ratios of the sample and control, respectively. The results are shown in Table 1, in which NF-kB Gene Reporter Activation (Luminescence, L) is reported. Percent NF-kB Inhibition is also reported."}, "[2]": {"conditions": "0.5% topical (2 mg/cm^2) in 70:30 Ethanol-Propylene glycol"}, "[3]": {"conditions": "1% topical (2 mg/cm^2) in 70:30 Ethanol-Propylene glycol"}}, "data": [{"smiles": "Oc1ccc(C=Cc2cc(O)cc(C=Cc3ccc(O)cc3)c2)cc1", "note": "[1-hydroxyl 3,5-bis(4′hydroxylstyryl)benzene]", "values": [{"measurement": "Change over vehicle alone (Normalized to 100)", "setting": "IL-8 cytokine release; [2]", "value": "85 ± 14"}, {"measurement": "% inhibition over UV treatment", "setting": "IL-8 cytokine release; 0.5% topical", "value": 37, "unit": "%"}, {"measurement": "Change over vehicle alone (Normalized to 100)", "setting": "IL-8 cytokine release; [3]", "value": "81 ± 31"}, {"measurement": "% inhibition over UV treatment", "setting": "IL-8 cytokine release; 1% topical", "value": 40, "unit": "%"}, {"measurement": "UV-induced inflammation (result in words)", "setting": "IL-8 cytokine release", "value": "strong reduction in UV-induced inflammation"}]}, {"smiles": "Oc1ccc(/C=C/c2cc(O)cc(/C=C/c3ccc(O)cc3)c2)cc1", "note": "[1-Hydroxyl 3,5-bis(4′hydroxylstyryl)benzene]", "values": [{"measurement": "Elastin Normalized Fold-change in PCR (Mean)", "setting": "Elastin; with TNF-α (10 ng/mL)", "value": 1.12}, {"measurement": "Elastin Normalized Fold-change in PCR (Mean)", "setting": "Elastin; without TNF-α", "value": 6.23}, {"measurement": "expression of genes associated with elastin production (result in words)", "setting": "Elastin; summary of Tables 3A and 3B", "value": "increased the expression of genes associated with collagen and elastin production"}, {"measurement": "Collagen1A Normalized Fold-change in PCR (Mean)", "setting": "Collagen1A; with TNF-α (10 ng/mL)", "value": 1.36}, {"measurement": "Collagen1A Normalized Fold-change in PCR (Mean)", "setting": "Collagen1A; without TNF-α", "value": 2.96}, {"measurement": "expression of genes associated with collagen production (result in words)", "setting": "Collagen1A; summary of Tables 3A and 3B", "value": "increased the expression of genes associated with collagen and elastin production"}, {"measurement": "Mean of MMP-9 Release", "setting": "MMP-9; 0.25% w/v topical (2 mg/cm^2)", "value": "1392 ± 627", "unit": "ng/mL"}, {"measurement": "Mean of MMP-9 Release", "setting": "MMP-9; 0.5% w/v topical (2 mg/cm^2)", "value": "1012 ± 249", "unit": "ng/mL"}, {"measurement": "inhibition at 0.25 % strength", "setting": "MMP-9; Homo sapiens, 0.25% w/v topical, TNF-α 100 ng/mL, read-out: Percent Inhibition of MMP-9 Production (over TNF-α alone)", "value": 60.9, "unit": "%"}, {"measurement": "inhibition at 0.5 % strength", "setting": "MMP-9; Homo sapiens, 0.5% w/v topical, TNF-α 100 ng/mL, read-out: Percent Inhibition of MMP-9 Production (over TNF-α alone)", "value": 71.6, "unit": "%"}, {"measurement": "formation of TNF-α induced MMP-9 (result in words)", "setting": "MMP-9; summary of Table 4", "value": "inhibited the formation of TNF-α induced MMP-9"}, {"measurement": "Change over vehicle alone (Normalized to 100)", "setting": "IL-8 cytokine release; [2]", "value": "82 ± 21"}, {"measurement": "% inhibition over UV treatment", "setting": "IL-8 cytokine release; 0.5% topical", "value": 39, "unit": "%"}, {"measurement": "Change over vehicle alone (Normalized to 100)", "setting": "IL-8 cytokine release; [3]", "value": "80 ± 26"}, {"measurement": "% inhibition over UV treatment", "setting": "IL-8 cytokine release; 1% topical", "value": 40, "unit": "%"}, {"measurement": "UV-induced inflammation (result in words)", "setting": "IL-8 cytokine release", "value": "strong reduction in UV-induced inflammation"}, {"measurement": "Percent NF-kB Inhibition", "setting": "[1]; 0.2 ug/ml", "value": 0.5, "unit": "%"}, {"measurement": "Percent NF-kB Inhibition", "setting": "[1]; 0.5 ug/ml", "value": 22.1, "unit": "%"}, {"measurement": "Percent NF-kB Inhibition", "setting": "[1]; 1 ug/ml", "value": 51.7, "unit": "%"}, {"measurement": "Percent NF-kB Inhibition", "setting": "[1]; 2 ug/ml", "value": 71.0, "unit": "%"}, {"measurement": "Percent NF-kB Inhibition", "setting": "[1]; 4 ug/ml", "value": 96.1, "unit": "%"}]}]}
